These results are taken from patent US20230088644A1, “COMPOSITION FOR INDUCING DIFFERENTIATION INTO INSULIN-PRODUCING CELLS, AND USE THEREOF” (SEOUL NATIONAL UNIVERSITY R&DB FOUNDATION, priority 2020, published 2023).

Experiment [1] has as its system human umbilical cord blood cells. It is filed as cell-based. The method, then: Umbilical cord blood-derived mononuclear cells were freshly isolated using Ficoll-gradient protocol and suspended in a lysis solution (BD Pharmingen) to remove red blood cells.
Differentiation was induced by treating (priming) with putrescine in the same manner as in the method of Example 1.2, except that putrescine was added to a concentration of 1 mM or 5 mM, and the gene expression levels for insulin (INS) and factors (MAFA, NEUROG3) that promote the differentiation into insulin-producing beta cells were measured by performing quantitative real time PCR in the same manner as in the method of Example 1.2.
(§1) Samples were divided into (1) putrescine alone-treated group (5 mM), (2) putrescine (5 mM) and glucosamine (5 mM)-co-treated group, (3) putrescine (5 mM), glucosamine (5 mM), and nicotinamide (10 mM)-co-treated group, and (4) control (non-treated group). Umbilical cord blood cells (prepared in the same manner as in Example 1.3) and mouse bone marrow cells (prepared in the same manner as in Example 1.1) were cultured in suspension to induce the differentiation into insulin-producing cells.
(§2) On day 6 after priming the umbilical cord blood cells or mouse bone marrow cells for differentiation, total RNA was extracted to perform quantitative real-time PCR, similarly to the method of Example 1.2, and the mRNA expression of insulin and beta cell differentiation-related genes (MAFA, PDX1, or NEUROG3) was determined, as shown in FIGS. 4 (in primed umbilical cord blood cells) and 5 (in primed mouse bone marrow cells).
Umbilical cord blood cells were isolated in the same manner as in Example 1.3, and the differentiation effect on culture medium was determined. […] On day 6 after the culture, the expression levels of genes were compared in the cells in which differentiation was induced in the DMEM or CMRL1066 culture medium, respectively, using RT-PCR and quantitative real-time PCR. The conditions for quantitative real-time PCR were the same as in Example 1.2, and RT-PCR was performed with the following steps; 1) initial denaturation of 94° C. for 5 minutes; 2) amplification of 94° C. for 30 seconds, 60° C. for 30 seconds, and 72° C. for 1 minute by repeating the cycle 30 times; 3) final extension of 72° C. for 10 minutes.
Cells were collected on day 6 after the culture to confirm the appearance of insulin-producing cells.

Another experiment concerns mouse bone marrow cells. The experiment in a line: Differentiation of mouse bone marrow cells into insulin-producing cells, RT-PCR / quantitative real-time PCR. Conditions: for insulin expression compared to the control: 10 mM each, 6 days, DMEM. Format: cell-based. How it is done: Mouse bone marrow cells were isolated from 8-week-old male C57BL/6 mice (Orientbio Inc.) in the same manner as in Example 1.1. Bone marrow cells in DMEM culture medium (Dulbecco's Modified Eagle's Medium) (standard medium) containing 5.5 mM glucose, 10% FBS, and 1% antibiotics were seeded at 5×10^6 cells/ml into a 12-well non-coated plate, treated with glucosamine (GlcN) and putrescine (Put) to a concentration of 10 mM each or together, and cultured for 6 days in suspension for differentiation.
To investigate whether or not insulin-producing cells appeared, the gene expression levels of insulin (INS), MAFA, PDX-1, and NEUROG3 were measured by a quantitative real-time PCR method, as in the method of Example 1.2, which are shown in FIG. 3.
as §1, §2
On the technique in general: In qPCR the cycle at which signal appears reflects the starting amount.

Experiment [2] relates to umbilical cord blood cells. As to the kind of experiment: Insulin secretion of differentiated umbilical cord blood cells, insulin ELISA. Conditions: BP-1-102 added on day 4; primed 6 days, then 3 days in CMRL1066 with 11 mM glucose; supernatant ELISA.
In another experiment the test system is human bone marrow cells. The conditions noted are these: 5 mM putrescine, 6 days, DMEM; compared to control without putrescine.
The mark [3] stands for this setting: added to 5 mM putrescine, 5 mM glucosamine, 10 mM nicotinamide in CMRL1066, JSI-124 0.1 μM, CPT 1 μM, BP-1-102 10 μM, day 6.

Molecules are shown by their SMILES. Like-named read-outs stand apart in the source and are kept apart here. Some results are limits rather than exact numbers.

`CC(C)(O)/C=C/C(=O)[C@](C)(O)C1[C@H](O)C[C@@]2(C)[C@@H]3CC=C4C(C=C(O)C(=O)C4(C)C)[C@]3(C)C(=O)C[C@]12C` (stereo partly drawn) [JSI-124]: the “mRNA expression levels of insulin and beta cell differentiation-related genes, order among STAT3 inhibitors” value in experiment [1] (setting [3]) was “significantly increased in the order of CPT <JSI-124<BP-1-102”. Besides, the “mRNA expression levels of insulin (INS) and beta cell differentiation-related genes (PDX1, NEUROG3, or NEUROD1)” value with mouse bone marrow cells (100 nM added on day 4 after the culture, compared to treatment at other time points (day 0, 2)) is listed as “significantly increased”. Also, the “expression levels of genes promoting differentiation into insulin-producing cells” value with mouse bone marrow cells (STAT3 inhibitor 100 nM added on day 0, 2 or 4 to glucosamine, putrescine and nicotinamide in CMRL 1066, collected day 6) is listed as “increased”.
On to `CN(CC(=O)N(Cc1ccc(C2CCCCC2)cc1)c1ccc(C(=O)O)c(O)c1)S(=O)(=O)c1c(F)c(F)c(F)c(F)c1F` [BP-1-102], for which, in experiment [1], the “mRNA expression levels of insulin and beta cell differentiation-related genes, order among STAT3 inhibitors” value is listed as “significantly increased in the order of CPT <JSI-124<BP-1-102”; the “mRNA expression of insulin compared to treatment only with glucosamine, putrescine, and nicotinamide” value is recorded as at least 3 fold. Also, the “insulin secretion compared to only three differentiation-inducing factors (glucosamine, putrescine, and nicotinamide)” value in experiment [2] was at least 10 fold.
With `C[C@H]1COC2=C1C(=O)C(=O)c1c2ccc2c1CCCC2(C)C` [CPT], the “mRNA expression levels of insulin and beta cell differentiation-related genes, order among STAT3 inhibitors” value in experiment [1] (setting [3]) was “significantly increased in the order of CPT <JSI-124<BP-1-102”.
For the compound `NCCCCN` [putrescine, 1,4-diaminobutane], in experiment [1] (5 mM putrescine, 6 days, DMEM, compared to control cells without putrescine), the “mRNA expression of beta cell-specific genes (INS, MAFA, and NEUROG3)” value is listed as “significantly increased”. Besides, the “gene expression levels for insulin and the factors that promote the beta cell differentiation” value in experiment [1] (putrescine at a concentration of 5 mM or more (0.1 to 20 mM tested), 6 days) is “significantly increased”. Moreover, the “insulin expression compared to the control” value with mouse bone marrow cells is 4.3 fold. For the same compound, the “mRNA expression of insulin (INS), MAFA, PDX1, and NEUROG3” value in the experiment with human bone marrow cells is “significantly increased”.
Take `N[C@H]1C(O)O[C@H](CO)[C@@H](O)[C@@H]1O` (stereo partly drawn) [glucosamine]: in the experiment on mouse bone marrow cells, the “insulin expression compared to the control” value was 2 fold.
